Here are results for two compounds from patent publication US7208514B2, “Tumorigenesis inhibitor” (Mitsubishi Pharma Corporation, priority 2003, dated 2007).

The conditions of series [1]: literature statement; cited from earlier work.
The test system of series [2] is azoxymethane-induced aberrant crypt foci in colon. Put plainly: Suppressive effect on the formation of azoxymethane-induced aberrant crypt foci in colon. Type of series: in vivo, male ICR mice. Conditions: for number of colonic ACF / body weight: mean ± standard error; for number of colonic ACF: control 10.3 ± 1.7; for body weight: mixed diet for 5 weeks, azoxymethane-treated mice.

For series [3], the system named is lipid peroxide production in homogenate of the brain. Put plainly: Examination of antioxidative effect (thiobarbituric acid reaction product, lipid peroxide, in brain homogenate). It is filed as biochemical, Wistar rat. The method, then:
The absorbance of a thiobarbituric acid reaction product (lipid peroxide) generated 1 hr after the incubation was measured.

Series [4] relates to dimethylhydrazine-induced colonic ACF and colonic mucosal cell growth. Put plainly: Suppressive effect on the formation of dimethylhydrazine-induced colonic ACF and cancer cell growth. Conditions: for number of colonic ACF: mean ± standard error, control 30.7 ± 3.3. Type of series: in vivo, male ICR mice.
Setting [5] is: Y-700 5-20 mg/kg mixed diet, 5 weeks.
The mark [6] stands for this setting: Y-700 10 and 20 mg/kg mixed diet, 10 weeks.
[7] abbreviates: Y-700 mixed diet 10 and 20 mg/kg diet.

On to `Oc1ncnc2[nH]ncc12` [allopurinol, reference compound], for which the “radical removing (scavenging) effect” value in series [1] is given as “shows a radical removing (scavenging) effect”.

On to `CC(C)(C)COc1ccc(-n2cc(C(=O)O)cn2)cc1C#N` [Y-700, 1-(3-cyano-4-neopentyloxyphenyl)pyrazole-4-carboxylic acid], for which the “number of colonic ACF” value in series [2] (Y-700 5 mg/kg diet, 5 weeks) is 7.0 ± 1.3 n/mice; in series [2] (Y-700 10 mg/kg diet, 5 weeks), 7.0 ± 0.7 n/mice; in series [2] (Y-700 15 mg/kg diet, 5 weeks), 6.5 ± 0.6 n/mice; in series [2] (Y-700 20 mg/kg diet, 5 weeks), 5.5 ± 0.7 n/mice; in series [4] (Y-700 10 mg/kg diet, 10 weeks), 20.7 ± 2.0 n/mouse; in series [4] (Y-700 20 mg/kg diet, 10 weeks) it was 22.9 ± 1.4 n/mouse. The body weight in series [2] (Y-700 5 mg/kg diet) is 40.4 ± 1.2 g; in series [2] (Y-700 10 mg/kg diet), 39.9 ± 1.4 g; in series [2] (Y-700 15 mg/kg diet), 40.3 ± 0.9 g; in series [2] (Y-700 20 mg/kg diet), 39.9 ± 1.0 g. In addition, the “body weight change attributable to Y-700 administration” value in series [2] (setting [5]) and in series [4] (setting [6]) was “nor was observed body weight change” throughout. Further, the feed intake entry in series [2] (setting [5]) and in series [4] (setting [6]) was “No change” throughout. The “number of colonic ACF, trend” value in series [2] (Y-700 mixed diet 5-20 mg/kg diet) was “dose-dependent decreases”. The “effect on the increase in the number of colonic ACF induced by azoxymethane” value in series [2] (conclusion in words) was “suppressive effect”. The “change in production amount of lipid peroxide attributable to addition of Y-700” value in series [3] (0.5-20 μg/ml) is reported as “No change”. Further, the antioxidative effect result in series [3] (conclusion in words) was “no antioxidative effect”. In addition, the “cell growth rate of the surrounding areas, change in words” value in series [4] (setting [7]) was “significant decreases”. Also, the “number of colonic ACF, change in words” value in series [4] (setting [7]) is given as “significant decreases”. Also, the “radical removing (scavenging) effect” value in series [1] was “free of radical scavenging effect”.
